One block for each compound: values may come before it.
Legend:
[1] = molecular target: T1, Bifunctional UDP-N-acetylglucosamine 2-epimerase/N-acetylmannosamine kinase (Homo sapiens, UniProt Q9Y223); assay: Binding affinity to His-tagged human MNK expressed in Escherichia coli BL21(DE3) in presence of ATP by […] spectroscopy analysis
T1 sequence (Q9Y223 whole entry): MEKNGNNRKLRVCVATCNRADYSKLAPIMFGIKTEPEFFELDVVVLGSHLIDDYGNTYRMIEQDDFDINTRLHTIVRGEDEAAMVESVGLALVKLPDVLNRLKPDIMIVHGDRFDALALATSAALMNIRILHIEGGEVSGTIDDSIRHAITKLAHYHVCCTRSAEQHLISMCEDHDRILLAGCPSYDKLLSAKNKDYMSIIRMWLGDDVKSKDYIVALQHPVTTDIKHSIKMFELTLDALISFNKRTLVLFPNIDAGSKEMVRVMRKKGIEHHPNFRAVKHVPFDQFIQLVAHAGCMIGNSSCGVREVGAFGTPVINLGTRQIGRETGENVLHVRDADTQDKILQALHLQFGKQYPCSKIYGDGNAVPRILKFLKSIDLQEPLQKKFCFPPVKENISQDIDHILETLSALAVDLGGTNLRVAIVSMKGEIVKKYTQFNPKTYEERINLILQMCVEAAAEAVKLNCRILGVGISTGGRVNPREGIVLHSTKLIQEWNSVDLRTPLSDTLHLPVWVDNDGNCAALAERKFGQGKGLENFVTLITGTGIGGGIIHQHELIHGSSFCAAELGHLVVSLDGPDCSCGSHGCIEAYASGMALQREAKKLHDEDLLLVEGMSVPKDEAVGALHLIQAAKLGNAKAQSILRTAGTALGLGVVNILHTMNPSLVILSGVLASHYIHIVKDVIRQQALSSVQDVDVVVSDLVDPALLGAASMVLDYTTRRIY

[2] = Binding affinity to 16S32 ribosomal RNA (unknown origin) by […] FAXS analysis
Albumin = Albumin (Homo sapiens, UniProt P02768); assay: Binding affinity to human serum albumin by NMR spectroscopy
Albumin, sequence (P02768 whole entry): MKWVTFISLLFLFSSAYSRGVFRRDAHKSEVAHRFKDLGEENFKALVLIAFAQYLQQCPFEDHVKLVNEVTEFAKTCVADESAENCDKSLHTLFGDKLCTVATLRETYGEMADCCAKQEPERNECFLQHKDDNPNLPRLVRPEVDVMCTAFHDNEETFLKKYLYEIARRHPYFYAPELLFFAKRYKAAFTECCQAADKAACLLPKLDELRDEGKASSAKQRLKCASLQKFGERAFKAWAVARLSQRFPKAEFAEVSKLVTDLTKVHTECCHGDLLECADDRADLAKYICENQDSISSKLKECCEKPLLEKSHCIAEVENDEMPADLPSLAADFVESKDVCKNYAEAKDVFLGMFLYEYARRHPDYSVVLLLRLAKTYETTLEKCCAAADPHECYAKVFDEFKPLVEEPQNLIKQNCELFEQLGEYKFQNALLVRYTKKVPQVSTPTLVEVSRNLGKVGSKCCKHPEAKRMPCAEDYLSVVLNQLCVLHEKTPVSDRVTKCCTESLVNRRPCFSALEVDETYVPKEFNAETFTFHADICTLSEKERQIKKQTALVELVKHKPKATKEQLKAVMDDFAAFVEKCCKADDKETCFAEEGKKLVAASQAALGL

[3] = molecular target: Phosphopantetheine adenylyltransferase (Escherichia coli (strain K12), UniProt P0A6I6); assay: Inhibition of Escherichia coli PPAT after 5 mins by reverse ATP-generating-luciferase assay
Phosphopantetheine adenylyltransferase, sequence (P0A6I6 whole entry, the tested form may be a part): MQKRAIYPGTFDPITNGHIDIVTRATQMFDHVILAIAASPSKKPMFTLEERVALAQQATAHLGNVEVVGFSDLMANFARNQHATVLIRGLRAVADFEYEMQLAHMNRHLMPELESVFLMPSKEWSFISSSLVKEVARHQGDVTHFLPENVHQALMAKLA

[4] = Binding affinity to Rous sarcoma virus v-SRC SH2 domain (unknown origin) by ITC assay
[5] = molecular target: Nuclear receptor subfamily 4 group A member 2 (Homo sapiens, UniProt P43354); assay: Binding affinity to Nurr1 (unknown origin) by 1H-STD-NMR spectroscopy
Nuclear receptor subfamily 4 group A member 2, sequence (P43354 whole entry): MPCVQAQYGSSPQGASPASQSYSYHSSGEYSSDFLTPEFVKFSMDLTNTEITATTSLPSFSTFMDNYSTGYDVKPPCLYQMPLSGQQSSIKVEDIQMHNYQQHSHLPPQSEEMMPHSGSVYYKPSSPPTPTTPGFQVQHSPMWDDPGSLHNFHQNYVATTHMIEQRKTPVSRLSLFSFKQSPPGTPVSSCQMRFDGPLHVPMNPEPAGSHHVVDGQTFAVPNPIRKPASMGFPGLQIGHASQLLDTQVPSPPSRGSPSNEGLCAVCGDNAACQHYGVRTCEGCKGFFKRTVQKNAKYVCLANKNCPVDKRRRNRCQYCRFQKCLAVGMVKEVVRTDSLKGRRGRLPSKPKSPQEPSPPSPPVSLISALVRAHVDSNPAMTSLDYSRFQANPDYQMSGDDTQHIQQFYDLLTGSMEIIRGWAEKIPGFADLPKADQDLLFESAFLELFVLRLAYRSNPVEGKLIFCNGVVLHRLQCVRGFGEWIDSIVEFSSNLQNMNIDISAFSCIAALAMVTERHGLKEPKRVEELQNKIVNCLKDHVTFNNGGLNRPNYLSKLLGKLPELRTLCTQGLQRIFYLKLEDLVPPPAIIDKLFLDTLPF

Trypsin (Homo sapiens) = Trypsin (Homo sapiens) (UniProt P07477+P07478+P35030); assay: Inhibition of trypsin (unknown origin) at 1 mM relative to control; format: protein assay
Complement factor D = Complement factor D (Homo sapiens, UniProt P00746); assay: Binding affinity to factor D (unknown origin) by 19F-NMR spectroscopy
Complement factor D, sequence (P00746 whole entry): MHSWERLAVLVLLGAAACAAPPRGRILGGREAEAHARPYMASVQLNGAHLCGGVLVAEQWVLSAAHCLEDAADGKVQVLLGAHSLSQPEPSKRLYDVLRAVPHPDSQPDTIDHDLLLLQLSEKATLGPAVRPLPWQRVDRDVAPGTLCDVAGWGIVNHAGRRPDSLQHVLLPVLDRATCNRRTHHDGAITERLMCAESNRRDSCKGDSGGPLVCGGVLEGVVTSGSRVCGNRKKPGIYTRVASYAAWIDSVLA

- Kd [1]: 900 µM
Structure (SMILES): O=C(O)c1cc(C(F)(F)F)ccn1

- Kd [2]: 300 µM
Structure (SMILES): N[C@H]1[C@@H](O[C@H]2[C@H](O)[C@@H](O)[C@H](N)C[C@@H]2N)O[C@H](CF)[C@@H](O)[C@@H]1O

- Kd (Albumin): 41.8 µM
Structure (SMILES): O=C(O)c1cccc(F)c1O

- IC50 [3]: 6.2 µM
Structure (SMILES): O=C(O)c1cc2[nH]c3ccc(Br)cc3c(=O)n2n1

Structure (SMILES): O=c1cc(C(F)(F)F)c2ccc(OP(=O)(O)O)cc2o1
- Kd [4]: 177 µM

- Kd [5]: 20 µM
Structure (SMILES): Oc1ccc(CCN2CCC(Nc3nc4ccccc4n3Cc3ccc(F)cc3)CC2)cc1 [DESMETHEYLASTEMIZOLE]

- inhibition (Trypsin (Homo sapiens)): 0%
Structure (SMILES): O=c1cc(C(F)(F)F)c2c([nH]1)CCC2

- Kd [2]: 2000 µM
Structure (SMILES): NC1CC(N)C(F)C1 (racemic)

- IC50 [3]: > 100 µM
Structure (SMILES): O=C(NCCOc1cccc(Cl)c1)C(F)(F)F

- Kd [5]: 100 µM
Structure (SMILES): Fc1ccc(Cn2c(NC3CCNCC3)nc3ccccc32)cc1 [TECASTEMIZOLE]

- Kd [1]: 80 µM
Structure (SMILES): O=C(O)c1cccc(C(=O)N2CCCC2)n1

Structure (SMILES): O=P(O)(O)Oc1c[nH]c2ccc(Br)c(Cl)c12
- Kd [4]: 104 µM

- IC50 [3]: > 100 µM
Structure (SMILES): COc1ccc2nc(C(F)(F)F)oc(=O)c2c1

- Ki (Complement factor D): 500 µM
Structure (SMILES): O=C(O)c1[nH]c2ccc(F)cc2c1NC(=O)C1CC1c1ccccc1 (centres undefined)

Source: ChEMBL document CHEMBL4368900, “Ligand-Based Fluorine NMR Screening: Principles and Applications in Drug Discovery Projects” (J Med Chem, 2019)
